From patent US20070203066A1, “Compositions and methods for inhibiting cellular proliferation” (priority 2005, published 2007)
Non-standard residues stand in square brackets, D forms with d. Primed or numbered codes have the meaning given here. No end group written: not given here. *: point of attachment. Ida(3) = iminodiacetic acid linker, Lys side-chain amines bound to its two carboxyl groups; Ida(4) = iminodiacetic acid linker (dimerization linker bound to lysine side chain); Ida″ = iminodiacetic acid linker bound to the Lys side-chain amine, forming a dimer; Biotin = O=C1N[C@H]2[C@H](CS[C@H]2CCCCC(=O)*)N1; Dip = N[C@H](C(=O)O)C(c1ccccc1)c1ccccc1; Ahx = NCCCCCC(=O)O

System: HUVECs
Type: cell-based
Conditions: HUVEC proliferation, bFGF at 10 ng/ml or VEGF at 5 ng/ml, 48 hours, BrdU incorporation; read-out: IC50 on HUVECs
Experimental: HUVECs were routinely cultured to near confluency in EGM media (Clontech, Mountain View, California). The cells were trypsinized and plated in a 96-well plate at 5,000 cells per well per 100 μl EBM supplemented with 2% FCS and antibiotics. The cells were allowed to adhere to the plate for at least 12 hours. Then, bFGF at 10 ng/ml or VEGF at 5 ng/ml, and various concentrations of peptide, were added to the wells. The cells were cultured for 48 hours at 37 ° C. in a 5% CO2 atmosphere. Cell proliferation was determined using a bromo-deoxyuridine (BrdU) incorporation method as described by the manufacturer. Inhibition of cell proliferation was assessed by BrdU incorporation.

Q: With “409 (Ac-QRRRRQAVAIYFK; not fully specified (residue 13, C-terminus); also: homodimer via Ida linker on Lys side chains, linker at 13 via Ida, other end not in the chain) [compound 409]” as the substance, how does the IC50 read?
A: < 10 µM

Q: Which IC50 does the source give for “378 (Ac-ARRRRQRVAIQFK-NH2; not fully specified (residue 13); also: homodimer via Ida linker on Lys13 side chain, Ida amine Boc) [compound 378]” here?
A: < 10 µM

Q: How did the IC50 turn out when “433 (Ac-RRRREQAVAIYFK(Ida(4)); not fully specified (C-terminus); also: homodimer via Ida linker at K13) [compound 433]” was run?
A: 10 to 30 µM

Q: How did the IC50 turn out when “414 (Ac-YRRRRQAVAIYFK; not fully specified (residue 13, C-terminus); also: homodimer via Ida linker on Lys side chains, linker at 13 via Ida, other end not in the chain) [compound 414]” was run?
A: < 10 µM

Q: For KKQRVKIAYEEIFVKNM [compound 12], which IC50 is on record?
A: < 10 µM

Q: How did the IC50 turn out when RKKQRVKIAYEEIFV [compound 64] was run?
A: 10 to 30 µM

Q: Which IC50 does the source give for “235 (Ac-RHHRRQRVRIIF; also: dimer via C-terminal Phe to Lys linker) [compound 235]” here?
A: < 10 µM

Q: How did the IC50 turn out when “442 (Ac-RRRRVQAVAIYFK(Ida(4)); not fully specified (C-terminus); also: homodimer via Ida linker at K13) [compound 442]” was run?
A: < 10 µM

Q: How did the IC50 turn out when RKRKKQRVKIAYEEIFVKNM [compound 4] was run?
A: 10 to 30 µM

Q: How did the IC50 turn out when “453 (Ac-QRRRRQAVAIVFK-NH2; not fully specified (residue 13); also: homodimer via Ida linker at K13) [compound 453]” was run?
A: < 10 µM

Q: With “335 (Ac-RHRRHQHVRIYFK; not fully specified (residue 13, C-terminus); also: homodimer via Ida linker on Lys13 side chain) [compound 335]” as the substance, how does the IC50 read?
A: < 10 µM

Q: How did the IC50 turn out when “253 (Ac-ARRRRQRVAII[dF]K; not fully specified (C-terminus); also: homodimer: side chain of Lys13 bound to an Ida linker) [compound 253]” was run?
A: < 10 µM

Q: How did the IC50 turn out when “276 (XRRRRQHVRIYFK; not fully specified; Xaa = Acylated Histidine; The side chain of Lysine at position 13 is covalently bound to an Ida linker forming a homodimer of residues 1 through 13.) [compound 276]” was run?
A: < 10 µM

Q: Which IC50 does the source give for “380 (Ac-ARRRRQEVAIYFK-NH2; not fully specified (residue 13); also: homodimer via Ida linker on Lys13 side chain, Ida amine Boc) [compound 380]” here?
A: < 10 µM

Q: AAKRKRKKQRVKIAYEEIFVQNM [compound 72] was tested. Which IC50 did it give?
A: 10 to 30 µM

Q: How did the IC50 turn out when “468 (Ac-ARRIRQAVAIYFK(Ida(3)); not fully specified (C-terminus); also: homodimer via Ida linker on Lys13 side chain) [compound 468]” was run?
A: > 30 µM

Q: For “301 (Ac-RRRRRQAVRITITFK-NH2; not fully specified (residue 15); also: homodimer: Lys15 side chain bound to Ida linker) [compound 301]”, which IC50 is on record?
A: < 10 µM

Q: How did the IC50 turn out when KRKKQRVKIAYEEIFV [compound 63] was run?
A: < 10 µM

Q: For “166 (Biotin-TKRKRKKQRVKIIFV; also: Thr1 biotinylated) [compound 166]”, which IC50 is on record?
A: 10 to 30 µM

Q: How did the IC50 turn out when KTKRKRKKQRVKIAYAAIFVQNM [compound 48] was run?
A: > 30 µM

Q: “441 (Ac-RRRRTQAVAIYFK(Ida(4)); not fully specified (C-terminus); also: homodimer via Ida linker at K13) [compound 441]” was tested. Which IC50 did it give?
A: < 10 µM

Q: “439 (Ac-RRRRPQAVAIYFK(Ida(4)); not fully specified (C-terminus); also: homodimer via Ida linker at K13) [compound 439]” was tested. Which IC50 did it give?
A: < 10 µM

Q: Which IC50 does the source give for “208 (Ac-RRRARQRVAIIF; also: dimer: Phe C-termini joined via Lys linker) [compound 208]” here?
A: < 10 µM

Q: Which IC50 does the source give for “128 (KTKRKRKKQRVKI[Ahx][Ahx]IF; also: dimer: C-terminus of Phe17 of each chain bound to one amino group of a Lysine linker) [compound 128]” here?
A: < 10 µM

Q: With “234 (XRRRRQRVHIIF; Xaa = Acylated Histidine; Dimeric peptide wherein the C terminus of Phe in position 12 of one peptide chain is covalently bound to one of the amino groups of a Lysine linker and Phe of the remaining peptide chain is covalently bound to the other amino group of the Lysine linker.) [compound 234]” as the substance, how does the IC50 read?
A: < 10 µM

Q: How did the IC50 turn out when “257 (Ac-ARRRRQR[dV]AIIFK; not fully specified (C-terminus); also: homodimer: side chain of Lys13 bound to an Ida linker) [compound 257]” was run?
A: < 10 µM

Q: For TKRKRKKQRVKIAYEEIFVQNM [compound 19], which IC50 is on record?
A: > 30 µM

Q: With KTKRKRKKQRVKIAYEEIFVK [compound 14] as the substance, how does the IC50 read?
A: < 10 µM

Q: “329 (Ac-ARRRRQRVAIYFK-NH2; not fully specified (residue 13); also: homodimer via Lys13 side chain, GP3 linker) [compound 329]” was tested. Which IC50 did it give?
A: < 10 µM

Q: Which IC50 does the source give for “495 (Ac-PRERRQAVAIYFK(Ida″); not fully specified (C-terminus); also: homodimer via Ida linker on Lys13 side chain) [compound 495]” here?
A: > 30 µM

Q: For “207 (Ac-RRRARQAVRIIF; also: dimer: Phe C-termini joined via Lys linker) [compound 207]”, which IC50 is on record?
A: < 10 µM

Q: For “464 (Ac-ARRERQAVAIYFK(Ida(3)); not fully specified (C-terminus); also: homodimer via Ida linker on Lys side chains, linker at 13 via Ida, other end not in the chain) [compound 464]”, which IC50 is on record?
A: < 10 µM

Q: KTKAARKKQRVKIAYEEIFVQNM [compound 55] was tested. Which IC50 did it give?
A: > 30 µM

Q: Which IC50 does the source give for “403 (Ac-GRRRRQAVAIYFK(Ida(3))-NH2; also: homodimer via Ida linker on Lys13 side chain, Boc on Ida amine) [compound 403]” here?
A: < 10 µM

Q: With “350 (Ac-ARRRRQRVAIY[Dip]K-NH2; not fully specified (residue 13); also: homodimer of residues 1-13 via Ida linker on K13 side chain) [compound 350]” as the substance, how does the IC50 read?
A: < 10 µM

Q: For “258 (Ac-ARRRRQ[dR]VAIIFK-NH2; not fully specified (residue 13); also: homodimer via Ida linker on Lys13 side chains) [compound 258]”, which IC50 is on record?
A: < 10 µM

Q: For “280 (Ac-RRRRAQAVAIYFK-NH2; not fully specified (residue 13); also: homodimer via Ida linker on Lys13 side chain) [compound 280]”, which IC50 is on record?
A: < 10 µM

Q: Which IC50 does the source give for KRKKQRVKIAYEEIFVQNM [compound 22] here?
A: > 30 µM

Q: With KTKRKRVKIAYEEIFVQNM [compound 52] as the substance, how does the IC50 read?
A: > 30 µM
